Experimental data from patent publication US6960597B2, “Aza-bridged-bicyclic amino acid derivatives as α4 integrin antagonists” (Orth-McNeil Pharmaceutical, Inc., priority 2000, dated 2005).
Like-named read-outs stand apart in the source and are kept apart here.

Legend:
α4β1 integrin receptor = molecular target: T1, α4β1 integrin receptor (Homo sapiens, UniProt P05556+P13612); experiment: Ramos Cell Adhesion Assay (α4β1 Mediated Adhesion/VCAM-1); assay type: cell-based
T1 construct: Ramos Cell Adhesion Assay (α4β1 Mediated Adhesion/VCAM-1); endogenous in cells; host or cells: Ramos cells
Procedure: Ramos Cell Adhesion Assay (α4β1 Mediated Adhesion/VCAM-1)
(§1) Immulon 96 well plates (Dynex) were coated with 100 μL recombinant hVCAM-1 at 4.0 μg/mL in 0.05 M NaCO3 buffer pH 9.0 overnight at 4° C. (R&D Systems). Plates were washed 3 times in PBS with 1% BSA and blocked for 1 h @ room temperature in this buffer. PBS was removed and compounds to be tested (50 μL) were added at 2× concentration. Ramos cells, (50 μL at 2×10^6/mL) labeled with 5 μM Calcein AM (Molecular Probes) for 1 h at 37° C., were added to each well and allowed to adhere for 1 h at room temperature. Plates were washed 3× in PBS+1% BSA and cells were lysed for 15 minutes in 100 μL of 1 M Tris pH 8.0 with 1% SDS. The plate was read at 485 nm excitation and 530 nm emission.

human α4β7 = molecular target: T2, human α4β7 (Homo sapiens, UniProt P13612+P26010); experiment: α4β7-K562 Cell Adhesion Assay (α4β7 Mediated Adhesion/VCAM-1); assay type: cell-based
T2 construct: expressed in transfected cells
T2 sequence (P13612 34-1032): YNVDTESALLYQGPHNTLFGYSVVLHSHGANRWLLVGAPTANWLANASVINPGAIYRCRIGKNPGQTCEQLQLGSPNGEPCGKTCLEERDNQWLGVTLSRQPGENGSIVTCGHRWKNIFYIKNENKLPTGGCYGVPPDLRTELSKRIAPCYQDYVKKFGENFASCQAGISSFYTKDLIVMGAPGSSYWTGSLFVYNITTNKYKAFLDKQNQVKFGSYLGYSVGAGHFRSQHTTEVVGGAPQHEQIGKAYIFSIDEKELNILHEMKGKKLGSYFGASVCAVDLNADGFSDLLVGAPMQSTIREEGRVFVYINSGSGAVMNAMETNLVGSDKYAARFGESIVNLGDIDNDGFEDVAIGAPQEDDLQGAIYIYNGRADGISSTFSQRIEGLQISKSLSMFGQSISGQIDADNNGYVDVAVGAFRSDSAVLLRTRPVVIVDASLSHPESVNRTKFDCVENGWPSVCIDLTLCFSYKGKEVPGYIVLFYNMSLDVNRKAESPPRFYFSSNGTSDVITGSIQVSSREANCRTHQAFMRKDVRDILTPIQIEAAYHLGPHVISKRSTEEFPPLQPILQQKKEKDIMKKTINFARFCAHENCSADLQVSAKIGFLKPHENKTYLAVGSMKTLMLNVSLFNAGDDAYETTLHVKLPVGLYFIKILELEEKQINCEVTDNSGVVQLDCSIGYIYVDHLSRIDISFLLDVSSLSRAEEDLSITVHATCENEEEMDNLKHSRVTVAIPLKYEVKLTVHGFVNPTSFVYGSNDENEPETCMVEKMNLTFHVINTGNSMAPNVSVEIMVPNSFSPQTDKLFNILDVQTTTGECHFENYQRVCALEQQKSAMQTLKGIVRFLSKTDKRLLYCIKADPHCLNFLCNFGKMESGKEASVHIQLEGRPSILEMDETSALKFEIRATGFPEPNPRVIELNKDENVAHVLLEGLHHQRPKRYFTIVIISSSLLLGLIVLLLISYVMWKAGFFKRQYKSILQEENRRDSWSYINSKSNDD
T2 sequence (P26010 20-798): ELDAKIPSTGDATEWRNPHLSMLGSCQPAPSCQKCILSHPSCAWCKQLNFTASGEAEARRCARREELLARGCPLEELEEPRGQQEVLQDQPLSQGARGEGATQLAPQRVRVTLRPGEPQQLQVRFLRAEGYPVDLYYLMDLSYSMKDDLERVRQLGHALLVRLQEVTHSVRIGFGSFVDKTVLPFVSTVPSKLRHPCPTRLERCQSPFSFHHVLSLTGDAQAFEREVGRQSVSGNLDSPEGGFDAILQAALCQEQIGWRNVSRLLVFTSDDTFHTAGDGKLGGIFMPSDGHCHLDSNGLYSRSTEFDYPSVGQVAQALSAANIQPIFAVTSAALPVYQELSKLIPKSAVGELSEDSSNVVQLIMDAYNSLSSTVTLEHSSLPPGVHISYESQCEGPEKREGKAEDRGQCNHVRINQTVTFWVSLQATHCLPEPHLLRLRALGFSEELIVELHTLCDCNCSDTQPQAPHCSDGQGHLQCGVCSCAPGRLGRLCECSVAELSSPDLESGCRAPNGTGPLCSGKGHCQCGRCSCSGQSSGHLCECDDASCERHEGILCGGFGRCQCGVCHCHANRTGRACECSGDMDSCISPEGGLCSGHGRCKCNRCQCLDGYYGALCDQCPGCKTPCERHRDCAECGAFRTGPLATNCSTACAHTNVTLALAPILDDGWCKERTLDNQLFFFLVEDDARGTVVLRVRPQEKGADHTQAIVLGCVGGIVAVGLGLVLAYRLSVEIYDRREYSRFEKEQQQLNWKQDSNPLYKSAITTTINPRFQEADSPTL
Procedure: α4β7-K562 Cell Adhesion Assay (α4β7 Mediated Adhesion/VCAM-1)
as §1, with “A stable cell line of K562 cells expressing human α4β7,” for “Ramos cells,”

[1] = Table III, read-out: Inhibition of Binding of Ramos Cells to Immobilized VCAM-1 IC50
[2] = Table IV, read-out: Inhibition of Binding of K562 Cells to Immobilized VCAM-1 IC50
[3] = Table I, racemic mixtures and resolved (S,S) and (R,S) diastereomers, read-out: Antagonist IC50 Activity α4β1
[4] = Table I, racemic mixtures and resolved (S,S) and (R,S) diastereomers, read-out: Antagonist IC50 Activity α4β7

T1 sequence (P05556 21-798, one chain of several): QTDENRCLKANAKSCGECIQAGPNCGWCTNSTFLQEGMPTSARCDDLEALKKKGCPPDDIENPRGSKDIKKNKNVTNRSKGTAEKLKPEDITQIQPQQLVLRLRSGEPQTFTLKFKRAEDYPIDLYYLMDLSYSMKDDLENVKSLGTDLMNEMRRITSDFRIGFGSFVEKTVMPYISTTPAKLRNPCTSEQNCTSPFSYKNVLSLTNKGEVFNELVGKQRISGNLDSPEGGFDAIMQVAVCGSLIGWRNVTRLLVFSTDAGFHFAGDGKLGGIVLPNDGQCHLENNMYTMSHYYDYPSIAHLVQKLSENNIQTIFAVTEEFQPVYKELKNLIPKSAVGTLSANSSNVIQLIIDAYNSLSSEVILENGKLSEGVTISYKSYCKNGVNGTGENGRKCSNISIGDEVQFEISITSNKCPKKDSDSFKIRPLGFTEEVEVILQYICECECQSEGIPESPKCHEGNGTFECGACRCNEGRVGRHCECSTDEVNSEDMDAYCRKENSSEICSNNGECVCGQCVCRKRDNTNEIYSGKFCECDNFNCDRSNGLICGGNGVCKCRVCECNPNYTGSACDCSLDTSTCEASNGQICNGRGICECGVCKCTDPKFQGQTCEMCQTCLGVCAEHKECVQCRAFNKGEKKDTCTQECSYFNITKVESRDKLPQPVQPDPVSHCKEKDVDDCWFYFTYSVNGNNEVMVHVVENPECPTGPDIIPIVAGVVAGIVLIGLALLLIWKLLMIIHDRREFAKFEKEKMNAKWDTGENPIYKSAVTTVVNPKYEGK

IC50 (α4β1 integrin receptor; [1]) [nM] | IC50 (α4β1 integrin receptor; [3]) [nM] | IC50 (human α4β7; [4]) [nM] | SMILES | also measured
45 |  |  | Cc1ccc(S(=O)(=O)N2C3CCC(CC3)C2C(=O)N[C@@H](Cc2ccc(NC(=O)c3c(Cl)cccc3Cl)cc2)C(=O)O)cc1 (mixture of isomers) [Cpd 1, 4-[(2,6-dichlorobenzoyl)amino]-N-[[2-[(4-methylphenyl)sulfonyl]-2-azabicyclo[2.2.2]oct-3-yl]carbonyl]-L-phenylalanine] | IC50 (human α4β7; [2]): 142 nM
25 | 20 | 283 | O=C(Nc1ccc(C[C@H](NC(=O)C2C3CCC(CC3)N2S(=O)(=O)c2ccccc2)C(=O)O)cc1)c1c(Cl)cccc1Cl (mixture of isomers) [Cpd 6, 4-[(2,6-dichlorobenzoyl)amino]-N-[[2-(phenylsulfonyl)-2-azabicyclo[2.2.2]oct-3-yl]carbonyl]-L-phenylalanine] | 
124 | 124 | 210 | COc1cccc(OC)c1-c1ccc(C[C@H](NC(=O)C2C3CCC(CC3)N2S(=O)(=O)c2ccc(C)cc2)C(=O)O)cc1 (mixture of isomers) [Cpd 18, 4-(2,6-dimethoxyphenyl)-N-[[2-[(4-methylphenyl)sulfonyl]-2-azabicyclo[2.2.2]oct-3-yl]carbonyl]-L-phenylalanine] | 
74 | 74 | 83 | O=C(N[C@@H](Cc1ccc(N2C(=O)c3ccccc3C2=O)cc1)C(=O)O)C1C2CCC(CC2)N1S(=O)(=O)c1ccccc1 (mixture of isomers) [Cpd 47, 4-(1,3-dihydro-1,3-dioxo-2H-isoindol-2-yl)-N-[[2-(phenylsulfonyl)-2-azabicyclo[2.2.2]oct-3-yl]carbonyl]-L-phenylalanine] | 
 |  |  | CN(C)C(=O)Oc1ccc(C[C@H](NC(=O)C2C3CCC(CC3)N2S(=O)(=O)c2ccccc2)C(=O)O)cc1 (mixture of isomers) [Cpd 52, O-[(dimethylamino)carbonyl]-N-[[2-(phenylsulfonyl)-2-azabicyclo[2.2.2]oct-3-yl]carbonyl]-L-tyrosine] | IC50 (α4β1 integrin receptor; Antagonist IC50 Activity α4β1, Table I, racemic mixtures and resolved (S,S) and (R,S) diastereomers): 124 nM; IC50 (α4β1 integrin receptor; Inhibition of Binding of Ramos Cells to Immobilized VCAM-1 IC50, Table III): 124 nM; IC50 (human α4β7): 998 nM
67 | 179 | 871 | CC(C)(C)OC(=O)N1CCC(C(=O)Nc2ccc(C[C@H](NC(=O)C3C4CCC(CC4)N3S(=O)(=O)c3ccccc3)C(=O)O)cc2)CC1 (mixture of isomers) [Cpd 53, 4-[[[1-[(1,1-dimethylethoxy)carbonyl]-4-piperidinyl]carbonyl]amino]-N-[[2-(phenylsulfonyl)-2-azabicyclo[2.2.2]oct-3-yl]carbonyl]-L-phenylalanine] | 
7 | 9 | 30 | O=C(Nc1ccc(C[C@H](NC(=O)C2C3CCC(CC3)N2S(=O)(=O)c2cccs2)C(=O)O)cc1)c1c(Cl)cncc1Cl (mixture of isomers) [Cpd 71, 4-[[(3,5-dichloro-4-pyridinyl)carbonyl]amino]-N-[[2-(2-thienylsulfonyl)-2-azabicyclo[2.2.2]oct-3-yl]carbonyl]-L-phenylalanine] | 
51 |  |  | Cc1ccc(S(=O)(=O)N2C3CCC(CC3)C2C(=O)N[C@@H](Cc2ccc(NC(=O)c3c(Cl)cc(Cl)cc3Cl)cc2)C(=O)O)cc1 (stereo partly drawn) [Cpd 2, 4-[(2,4,6-trichlorobenzoyl)amino]-N-[[2-[(4-methylphenyl)sulfonyl]-2-azabicyclo[2.2.2]oct-3-yl]carbonyl]-L-phenylalanine] | IC50 (human α4β7; [2]): 98 nM
50 |  |  | COc1cccc(OC)c1C(=O)Nc1ccc(C[C@H](NC(=O)C2C3CCC(CC3)N2S(=O)(=O)c2ccc(C)cc2)C(=O)O)cc1 (stereo partly drawn) [Cpd 3, 4-[(2,6-dimethoxybenzoyl)amino]-N-[[2-[(4-methylphenyl)sulfonyl]-2-azabicyclo[2.2.2]oct-3-yl]carbonyl]-L-phenylalanine] | IC50 (human α4β7; [2]): 1940 nM
81 | 81 | 62 | O=C(Nc1ccc(C[C@H](NC(=O)[C@@H]2C3CCC(C3)N2S(=O)(=O)c2ccccc2)C(=O)O)cc1)c1c(F)cccc1F (stereo partly drawn) [Cpd 5a, 4-[(2,6-difluorobenzoyl)amino]-N-[[(3S)-2-(phenylsulfonyl)-2-azabicyclo[2.2.1]hept-3-yl]carbonyl]-L-phenylalanine] | 
394 | 394 | 3380 | O=C(Nc1ccc(C[C@H](NC(=O)[C@H]2C3CCC(C3)N2S(=O)(=O)c2ccccc2)C(=O)O)cc1)c1c(F)cccc1F (stereo partly drawn) [Cpd 5b, 4-[(2,6-difluorobenzoyl)amino]-N-[[(3R)-2-(phenylsulfonyl)-2-azabicyclo[2.2.1]hept-3-yl]carbonyl]-L-phenylalanine] | 
21 | 23 | 217 | O=C(Nc1ccc(C[C@H](NC(=O)[C@@H]2C3CCC(CC3)N2S(=O)(=O)c2ccccc2)C(=O)O)cc1)c1c(Cl)cccc1Cl [Cpd 6a, 4-[(2,6-dichlorobenzoyl)amino]-N-[[(3S)-2-(phenylsulfonyl)-2-azabicyclo[2.2.2]oct-3-yl]carbonyl]-L-phenylalanine] | 
309 |  |  | O=C(Nc1ccc(C[C@H](NC(=O)C2C3CCC(CC3)N2S(=O)(=O)c2ccccc2)C(=O)O)cc1)c1c(F)c(F)cc(F)c1F (stereo partly drawn) [Cpd 44, 4-[(2,3,5,6-tetrafluorobenzoyl)amino]-N-[[2-(phenylsulfonyl)-2-azabicyclo[2.2.2]oct-3-yl]carbonyl]-L-phenylalanine] | 
9 |  |  | O=C(Nc1ccc(C[C@H](NC(=O)[C@@H]2C3CCC(CC3)N2S(=O)(=O)c2ccccc2)C(=O)O)cc1)c1c(Cl)cncc1Cl [Cpd 60, 4-[[(3,5-dichloro-4-pyridinyl)carbonyl]amino]-N-[[(3S)-2-(phenylsulfonyl)-2-azabicyclo[2.2.2]oct-3-yl]carbonyl]-L-phenylalanine] | 
56 |  |  | CN(C)C(=O)Nc1ccc(C[C@H](NC(=O)C2C3CCC(CC3)N2S(=O)(=O)c2ccccc2)C(=O)O)cc1 (stereo partly drawn) [Cpd 61, 4-[[(dimethylamino)carbonyl]amino]-N-[[2-(phenylsulfonyl)-2-azabicyclo[2.2.2]oct-3-yl]carbonyl]-L-phenylalanine] | 
